Data from US10125105B2, “Triazabutadienes as cleavable cross-linkers” (ARIZONA BOARD OF REGENTS ON BEHALF OF THE UNIVERSITY OF …, priority 2014, dated 2018).

Legend:
[1] = Stability in D2O / water in the dark by NMR; assay type: physicochemical
Procedure: (§1) For decomposition experiments, buffers were made to the appropriate pH in a 9:1 mix of H2O:D2O. These solutions were added to the compound being assayed such that the buffer capacity was at least 10 fold the concentration of the compound. Some experiments used 5 mg compound in 0.5 mL of buffer. These were immediately inserted into an NMR instrument and scans were taken at even time intervals to calculate the half-life of the compound based on integration.
To render the triazabutadiene water-soluble, methyl imidazole was alkylated with propane sultone to provide the Zwitterionic NHC precursor Compound 5a (see FIG. 6E). […] Compound 6a was highly colored, so its pH dependence was studied using UV/Vis. The reactions were not only pH-, but also scan-frequency dependent. […] Even in the dark it was unstable, but not in the diazonium-forming way. Both Compound 6b and a more hindered mesityl (Mes) substituted Compound 6c (see FIG. 6E) were synthesized to stabilize what was initially considered to be a rearrangement pathway that could be blocked by steric repulsion. […] It is not yet clear that the hypothesis of a simple rearrangement was correct. […]
As mentioned above, Compound 6c was reasonably stable in pure D20. […] The decomposition to diazonium salts and Compound 7 was measured as a function of pH in phosphate/citrate buffers from pH 4-7 and in a phosphate buffer from pH 6-8. […]

[2] = pH-dependent decomposition to diazonium salts in buffers by NMR; assay type: physicochemical; settings: phosphate/citrate buffers pH 4-7, phosphate buffer pH 6-8
Procedure: as §1
As mentioned above, Compound 6c was reasonably stable in pure D20. Upon adjusting the pH to 5 with HCl, a rapid initial consumption of Compound 6c to Compound 7 (see FIG. 6E) and a benzenediazonium salt was noted. After this initial burst of reactivity, a slowing and apparent arresting of the reaction was noted. At this pH the hydronium was the limiting reagent. All future reactions were run in buffers with a buffer capacity sufficient to maintain a large excess of hydronium ions. The experiments were performed in 90:10 H2O:D2O buffered solutions to minimize considerations of pH vs. pD. The decomposition to diazonium salts and Compound 7 was measured as a function of pH in phosphate/citrate buffers from pH 4-7 and in a phosphate buffer from pH 6-8. All runs provided linear correlations of concentration and time, indicating a pseudo-zero order reaction (first order with respect to hydronium ion with a large excess of hydronium ions). […]

Q: With `Cc1cc(C)c(-n2ccn(CCCS(=O)(=O)[O-])c2=NN=Nc2ccccc2)c(C)c1.[K+]` [Compound 6c, Potassium 3-(3-mesityl-2-(phenyltriaz-2-en-1-ylidene)-2,3-dihydro-1H-imidazol-1-yl) propane-1-sulfonate] as the compound, how does the “compound consumed after 24 hours” value ([1]; D2O, in the dark, room temperature, NMR) read?
A: Its value is “less than 10%”.

Q: And the “compound consumed after 6 hours” value ([1]; non-buffered 90:10 H2O:D2O solution)?
A: The value was over 7%.

Q: What about the “centre of sigmoidal correlation between decomposition rate and buffer pH” value [2] of the same compound?
A: The value was 6 pH.
